Entries after “also recorded” stand apart in the source; their conditions may differ.
What was measured:
[1] = tested on: HepG2 cells; assay: Drug toxicity to HepG2 cells; format: cell-based, human; conditions: 48 h, MTT
[2] = Human plasma protein binding; format: in vitro ADME; conditions: equilibrium dialysis, 18 h, 37 °C
[3] = Human liver microsomal Clint; format: in vitro ADME; conditions: for HLM Clint / microsomal CLint: human liver microsomes; for microsomal CLint: human, HLM Clint (μL/min/mg)
[4] = Aqueous pH 7.4; format: physicochemical; conditions: 0.1 M phosphate buffer pH 7.4, 25 °C, 20-24 h
[5] = Preliminary toxicity study in mice; format: in vivo; conditions: 100 mg/kg orally
[6] = tested on: Salmonella typhimurium strains; assay: Ames fluctuation assay; format: cell-based; conditions: with and without rat liver S9 fraction
[7] = Chemical stability; format: physicochemical

For “tert-Butyl methyl(2-((4-(4-(pyrazin-2-ylamino)quinolin-7-yl)phenyl)amino)ethyl)carbamate [6c]”, the “HepG2 TC50” value [1] was 8.0 µM, the “Human PPB (%)” value [2] was 95% and the “HLM Clint” value [3] was >300 µL/min/mg. The “Aq sol (μM) (thermodynamic solubility)” value [4] was 3.0 µM.
In the case of CN1C[C@@H]2C[C@H]1CN2c1ncc(-c2ccc3c(Nc4cnccn4)ccnc3c2)cn1 [10a, 7-(2-((1S,4S)-5-Methyl-2,5-diazabicyclo[2.2.1]heptan-2-yl)pyrimidin-5-yl)-N-(pyrazin-2-yl)quinolin-4-amine], the “Increase in metabolic stability compared to 1” value (from here on “Increase in metabolic stability”) [3] is reported as 4 fold.
In the case of CN1CCN(Nc2ncc(-c3ccc4c(Nc5cnccn5)ccnc4c3)cn2)CC1 [16f, 7-(2-((4-Methylpiperazin-1-yl)amino)pyrimidin-5-yl)-N-(pyrazin-2-yl)quinolin-4-amine], the “Increase in metabolic stability” value [3] is reported as 10 fold and the “HLM Clint” value [3] is reported as 16 µL/min/mg.
Cc1c(-c2cnc(N3CCN(C)CC3)nc2)ccc2c(Nc3cnccn3)ccnc12 [9b, 8-Methyl-7-(2-(4-methylpiperazin-1-yl)pyrimidin-5-yl)-N-(pyrazin-2-yl)quinolin-4-amine] showed a microsomal CLint [3] of 120 µL/min/mg.
In the case of CN1C[C@H]2C[C@@H]1CN2c1ncc(-c2ccc3c(Nc4cnccn4)ccnc3c2)cn1 [10b, 7-(2-((1R,4R)-5-Methyl-2,5-diazabicyclo[2.2.1]heptan-2-yl)pyrimidin-5-yl)-N-(pyrazin-2-yl)quinolin-4-amine], the “Increase in metabolic stability” value [3] is reported as 4 fold.
In the case of CN1CCCN(c2ncc(-c3ccc4/c(=N/c5cnccn5)ccn(C)c4c3)cn2)CC1 [22a, (E)-1-Methyl-7-(2-(4-methyl-1,4-diazepan-1-yl)pyrimidin-5-yl)-N-(pyrazin-2-yl)quinolin-4(1H)-imine], the “Adverse effects in preliminary toxicity study” value [5] is reported as “no adverse effects”, the Genotoxicity [6] is reported as “Neither 22a or its metabolites were found to be genotoxic; also recorded: neither it, nor its metabolites, are genotoxic” and the Hydrolytic stability ([7]; acidic and basic conditions) is reported as “hydrolytic stability was confirmed under both acidic and basic conditions”. The “Stability to hard and soft nucleophile” value ([7]; glutathione and cyanide) was “stable in the presence of both glutathione and cyanide” and the microsomal CLint [3] was 22 µL/min/mg.
With Cc1cc2c(Nc3cnccn3)ccnc2cc1-c1cnc(N2CCN(C)CC2)nc1 [9a, 6-Methyl-7-(2-(4-methylpiperazin-1-yl)pyrimidin-5-yl)-N-(pyrazin-2-yl)quinolin-4-amine] the microsomal CLint [3] was 130 µL/min/mg.

— publication PMC6556231 (Journal of medicinal chemistry, 2019)
